Measurements taken from the NIST ThermoML archive (doi:10.1016/j.fluid.2010.02.012).

Test: excess molar enthalpy (molar enthalpy of mixing); xn = mol fraction of the nth substance listed
Conditions: 298.18 K, 101 kPa, Liquid, Calvet calorimetry

CCCCCCCCCC [decane] + CCO
Conditions | excess molar enthalpy [kcal/mol]
x2 = 0.0881 | 0.12
x2 = 0.1338 | 0.142
x2 = 0.1766 | 0.159
x2 = 0.2665 | 0.174
x2 = 0.3141 | 0.176
x2 = 0.4314 | 0.176
x2 = 0.5931 | 0.161
x2 = 0.6501 | 0.153
x2 = 0.7248 | 0.141
x2 = 0.7837 | 0.128
x2 = 0.8079 | 0.123
x2 = 0.848 | 0.105
x2 = 0.8829 | 0.0894
x2 = 0.9377 | 0.0576
x2 = 0.962 | 0.038
